Source: patent publication US4868186A, “Theophyllinemethyldithiolan and theophyllinemethyldithianyl derivatives having antibronchospastic antitussive and mucolytic activity” (Istituto Biologico Chemioterapico ABC S.p.A., priority 1986, dated 1989)
Converted amounts (≈) assume the structure as drawn. Structures can show the parent of a compound that is named as a salt. Where two headings read alike, the source gives them in different places.

Experiments:
[1] = test system: completely removed guinea-pig tracheas; assay: Constrictive action of histamine di-hydrochloride on completely removed guinea-pig tracheas (in vitro); format: cell-based; conditions: for IC50: Cavia porcellus, read-out: ED50 (the source's name); for IC50 / ED50: Table I; for IC50 / % inhibition / ED50: histamine di-hydrochloride 5.10^-6 g/ml
Experimental: Thirty white guinea-pigs were used, from which the tracheas were removed, after they had been killed by ethereal anaesthesia. The tracheas were placed in a 50 ml bath of Krebs solution, suitably oxygenated and thermoregulated at a temperature of 37° C. The lower end of the trachea was closed while the upper end was connected to a polythene tube connected to a transducer for measuring volume differences connected to a polygraph, according to D. Jamieson's method 1962, Brit. J. Pharmacol. and Chemiotherapy, 19, 286, partially modified. Both the trachea and the polythene tube were filled with Krebs solution. The responses of the tracheas thus prepared to acetylcholine and histamine were investigated before and after the addition of the product to the bath.

[2] = test system: bronchospasm by acetylcholine chloride in guinea-pigs; assay: Bronchospasm by acetylcholine chloride (0.075 mg/kg i.v.) in guinea-pigs (Konzett and Roesler); format: in vivo, guinea-pig; conditions: for ED50: Cavia porcellus, iv
Experimental: Exp. Path. […] J. Pharmcol. 15, 290. Male guinea-pigs weighing 300-450 g were used under urethane anaesthesia (lg/kg i.p.). The animals were suitably prepared by insertion of a cannula in the jugular vein for intravenous administrations while the trachea was connected to an artificial respiration pump (Palmer) adapted for small animals, which was operated at a frequency of approximately 70 insufflations per minute. The pneumogram was recorded by means of a transducer on a polygraph (Battaglia-Rangoni).

rabbits = assay: Mucolytic activity: mucoproduction in rabbits before and after oral treatment; format: in vivo, rabbit; conditions: for Mucoproduction (mg/h) M ± SD 4-0 h (before the treatment): baseline before treatment; for mucolytic activity (in words): rabbits, oral
Experimental: (b) Mucolytic activity of compound 1, doxophylline and bromohexyne hydrochloride For these tests the method described by Perry, W. F., Boyd, E. M., J. Pharmacol., 1941, 73, 65 and suitably modified by us was used. New Zealand-type, male, white rabbits weighing 2.8-3.5 kg. were used. Pre-operative preparation consisted of treatment with 9 mg/kg i.m. of a non-stupefying central analgesic ([…] local anaesthesia in the tracheal region with xylocaine (0.9 mg/kg - 1% solution). The surgical operation commenced 15-20 minutes after the pharmacological pre-treatment. The trachea was exposed and a hole approximately 5-6 mm in diameter was made in its ventral side. The trachea was then introduced into the lower arm of a three-way polypropylene cannula, which had been cut suitably, longitudinally so as to connect the hole made in the trachea with the aperture of the third arm (vertical) of the cannula, and thus put it into communication with the outside. Thus, the cannula surrounded the outside of the trachea and was fixed "in loco" with sterile surgical silk thread. A polypropylene container was attached to the vertical arm of the cannula for collecting the mucous (capacity approximately 2 ml), and the wound was then sutured. The tracheal mucous was collected for four hours before the oral administration of the substance under test and for four hours after the treatment.

in vivo = conditions: po
Experimental: The products were administered in a 0.5% aqueous suspension of carboxymethylcellulose at a concentration of 1 ml/100 g of body weight.

[3] = General statements on side effects, habituation, toxicity and therapeutic index; conditions: among compounds (1)-(4)
[4] = legend of FIG. 2, unit inferred, read-out: ED 50

SMILES: Cn1c(=O)c2[nH]cnc2n(C)c1=O [AMINOPHYLLINE, aminophylline]
- IC50 [1]: 206 µg/mL (≈ 1140 µM)
- % inhibition ([1]; concentration 100 x 10^-6 g/ml): -10.9%
- % inhibition ([1]; concentration 150 x 10^-6 g/ml): -18.7%
- % inhibition ([1]; concentration 200 x 10^-6 g/ml): -46.15%
- % inhibition ([1]; concentration 300 x 10^-6 g/ml): -79.4%
- ED50 [2]: 4.97 mg/kg
- ED50 ([2]; read-out: ED50 mg/kg i.v.): 4.97 mg/kg
- % Variation in endobronchial pressure after administration of acetylcholine chloride (0,075 mg/kg i.v.) M ± SE ([2]; dose 0.5 mg/kg i.v.): 158.7 ± 24.6%
- % inhibition vs. controls ([2]; dose 0.5 mg/kg i.v.): -12.5%
- % Variation in endobronchial pressure after administration of acetylcholine chloride (0,075 mg/kg i.v.) M ± SE ([2]; dose 1 mg/kg i.v.): 135.7 ± 21.2%
- % inhibition vs. controls ([2]; dose 1 mg/kg i.v.): -25.2%
- % Variation in endobronchial pressure after administration of acetylcholine chloride (0,075 mg/kg i.v.) M ± SE ([2]; dose 5 mg/kg i.v.): 117.0 ± 17.4%
- % inhibition vs. controls ([2]; dose 5 mg/kg i.v.): -35.5%
- % Variation in endobronchial pressure after administration of acetylcholine chloride (0,075 mg/kg i.v.) M ± SE ([2]; dose 10 mg/kg i.v.): 49.9 ± 10.2%
- % inhibition vs. controls ([2]; dose 10 mg/kg i.v.): -72.5%

SMILES: CN(Cc1cc(Br)cc(Br)c1N)C1CCCCC1 [BROMOHEXYNE, bromohexyne hydrochloride, reference compound]
- Mucoproduction (mg/h) M ± SD 4-0 h (before the treatment) (rabbits; group dosed 400 mg/kg os): 28.9 ± 7.82 mg/h
- % Variation with respect to its own base (rabbits; dose 400 mg/kg os): +34.98%
- Mucoproduction (mg/h) M ± SD 0-4 h (after the treatment) (rabbits; dose 400 mg/kg os): 39.01 ± 4.34 mg/h

SMILES: Cn1c(=O)c2c(ncn2CC2SCCS2)n(C)c1=O [COMPOUND 1, 7-[2'-(1',3'-dithiolanyl)-methyl]-theophylline]
- IC50 [1]: 126 µg/mL (≈ 423 µM)
- % inhibition ([1]; concentration 50 x 10^-6 g/ml): -17.2%
- % inhibition ([1]; concentration 100 x 10^-6 g/ml): -32.5%
- % inhibition ([1]; concentration 200 x 10^-6 g/ml): -62.5%
- % inhibition ([1]; concentration 300 x 10^-6 g/ml): -95.0%
- activity in vitro, ranking among the compounds ([1]; on the basis of the results obtained in vitro): the most active
- ED50 ([2]; Table II, i.v., read-out: ED50 mg/kg i.v.): 0.99 mg/kg
- ED50 [2, 4]: 0.996 mg/kg
- % Variation in endobronchial pressure after administration of acetylcholine chloride (0,075 mg/kg i.v.) M ± SE ([2]; dose 0.1 mg/kg i.v.): 166.0 ± 22.4%
- % inhibition vs. controls ([2]; dose 0.1 mg/kg i.v.): -8.5%
- % Variation in endobronchial pressure after administration of acetylcholine chloride (0,075 mg/kg i.v.) M ± SE ([2]; dose 0.5 mg/kg i.v.): 145.1 ± 18.7%
- % inhibition vs. controls ([2]; dose 0.5 mg/kg i.v.): -20.0%
- % Variation in endobronchial pressure after administration of acetylcholine chloride (0,075 mg/kg i.v.) M ± SE ([2]; dose 1 mg/kg i.v.): 87.1 ± 15.2%
- % inhibition vs. controls ([2]; dose 1 mg/kg i.v.): -52.0%
- % Variation in endobronchial pressure after administration of acetylcholine chloride (0,075 mg/kg i.v.) M ± SE ([2]; dose 2 mg/kg i.v.): 51.7 ± 6.5%
- % inhibition vs. controls ([2]; dose 2 mg/kg i.v.): -71.5%
- antibronchospastic effect relative to aminophylline ([2]; from Table II): approximately five times that of aminophylline
- antibronchospastic effect relative to doxophylline ([2]; from Table II): approximately twice that of doxophylline
- Mucoproduction (mg/h) M ± SD 4-0 h (before the treatment) (rabbits; group dosed 10 mg/kg os): 30.6 ± 9.43 mg/h
- Mucoproduction (mg/h) M ± SD 4-0 h (before the treatment) (rabbits; group dosed 30 mg/kg os): 27.2 ± 5.22 mg/h
- Mucoproduction (mg/h) M ± SD 4-0 h (before the treatment) (rabbits; group dosed 100 mg/kg os): 29.7 ± 4.95 mg/h
- mucolytic activity compared with bromohexyne hydrochloride (rabbits; compound at 100 mg/kg vs bromohexyne hydrochloride at 400 mg/kg): more active than bromohexyne hydrochloride at a dose of 400 mg/kg
- % Variation with respect to its own base (rabbits; dose 10 mg/kg os): +13.95%
- Mucoproduction (mg/h) M ± SD 0-4 h (after the treatment) (rabbits; dose 10 mg/kg os): 34.87 ± 10.25 mg/h
- % Variation with respect to its own base (rabbits; dose 30 mg/kg os): +26.95%
- Mucoproduction (mg/h) M ± SD 0-4 h (after the treatment) (rabbits; dose 30 mg/kg os): 34.53 ± 4.16 mg/h
- % Variation with respect to its own base (rabbits; dose 100 mg/kg os): +57.27%
- Mucoproduction (mg/h) M ± SD 0-4 h (after the treatment) (rabbits; dose 100 mg/kg os): 46.71 ± 8.82 mg/h
- mucolytic activity (in words) (rabbits): dose-related mucolytic activity
- LD50 at 480 h (in vivo; mouse): 1510 mg/kg
- LD50 at 480 h (in vivo; rat): 1840 mg/kg
- therapeutic index (in words) [3]: most favourable therapeutic index

SMILES: Cn1c(=O)c2c(ncn2CC2SCCCS2)n(C)c1=O [COMPOUND 2, 7-[2'-(1',3'-dithianyl)-methyl]-theophylline]
- IC50 [1]: 837 µg/mL (≈ 2680 µM)
- % inhibition ([1]; concentration 100 x 10^-6 g/ml): -12.0%
- % inhibition ([1]; concentration 200 x 10^-6 g/ml): -18.5%
- % inhibition ([1]; concentration 250 x 10^-6 g/ml): -26.5%
- % inhibition ([1]; concentration 400 x 10^-6 g/ml): -38.5%

SMILES: Cn1c(=O)c2c(ncn2CC2SCC[S+]2[O-])n(C)c1=O (centres unmarked) [COMPOUND 3, 7-[2'-(1',3'-dithiolanyl)-methyl]-theophylline sulphoxide]
- ED50 [1]: 530.0 10^-6 g/ml
- % inhibition ([1]; concentration 100 x 10^-6 g/ml): -14.5%
- % inhibition ([1]; concentration 200 x 10^-6 g/ml): -21.5%
- % inhibition ([1]; concentration 300 x 10^-6 g/ml): -35.4%
- % inhibition ([1]; concentration 400 x 10^-6 g/ml): -47.5%

SMILES: Cn1c(=O)c2c(ncn2CC2SCC[S+]2[O-])n(C)c1=O (centres unmarked) [COMPOUND 4, 7-[2'-(1',3'-dithiolanyl)-methyl]-theophylline sulphoxide]
- ED50 [1]: 2241.8 10^-6 g/ml
- % inhibition ([1]; concentration 100 x 10^-6 g/ml): -7.5%
- % inhibition ([1]; concentration 200 x 10^-6 g/ml): -12.5%
- % inhibition ([1]; concentration 300 x 10^-6 g/ml): -20.4%
- % inhibition ([1]; concentration 400 x 10^-6 g/ml): -27.8%

SMILES: Cn1c(=O)c2c(ncn2CC2OCCO2)n(C)c1=O [DOXOPHYLLINE, 7-[2'-(1',3'-dioxolanyl)-methyl]-theophylline, reference compound]
- IC50 [1]: 175 µg/mL (≈ 657 µM)
- % inhibition ([1]; concentration 40 x 10^-6 g/ml): 0%
- % inhibition ([1]; concentration 200 x 10^-6 g/ml): -54%
- % inhibition ([1]; concentration 400 x 10^-6 g/ml): -78%
- % inhibition ([1]; concentration 800 x 10^-6 g/ml): -100%
- ED50 [2, 4]: 2.02 mg/kg
- % Variation in endobronchial pressure after administration of acetylcholine chloride (0,075 mg/kg i.v.) M ± SE ([2]; dose 0.5 mg/kg i.v.): 153.8 ± 18.4%
- % inhibition vs. controls ([2]; dose 0.5 mg/kg i.v.): -15.2%
- % Variation in endobronchial pressure after administration of acetylcholine chloride (0,075 mg/kg i.v.) M ± SE ([2]; dose 1 mg/kg i.v.): 133.3 ± 14.8%
- % inhibition vs. controls ([2]; dose 1 mg/kg i.v.): -26.5%
- % Variation in endobronchial pressure after administration of acetylcholine chloride (0,075 mg/kg i.v.) M ± SE ([2]; dose 2 mg/kg i.v.): 88.5 ± 11.3%
- % inhibition vs. controls ([2]; dose 2 mg/kg i.v.): -51.2%
- % Variation in endobronchial pressure after administration of acetylcholine chloride (0,075 mg/kg i.v.) M ± SE ([2]; dose 4 mg/kg i.v.): 56.4 ± 8.8%
- % inhibition vs. controls ([2]; dose 4 mg/kg i.v.): -68.9%
- Mucoproduction (mg/h) M ± SD 4-0 h (before the treatment) (rabbits; group dosed 100 mg/kg os): 29.8 ± 5.80 mg/h
- % Variation with respect to its own base (rabbits; dose 100 mg/kg os): +7.71%
- Mucoproduction (mg/h) M ± SD 0-4 h (after the treatment) (rabbits; dose 100 mg/kg os): 32.10 ± 8.26 mg/h
- mucolytic activity (in words) (rabbits): no mucolytic activity

SMILES: CC(=O)N[C@@H](CS)C(=O)O [N--acetylcysteine, reference compound]
- Mucoproduction (mg/h) M ± SD 4-0 h (before the treatment) (rabbits; group dosed 400 mg/kg os): 27.7 ± 5.50 mg/h
- % Variation with respect to its own base (rabbits; dose 400 mg/kg os): +16.21%
- Mucoproduction (mg/h) M ± SD 0-4 h (after the treatment) (rabbits; dose 400 mg/kg os): 32.19 ± 3.89 mg/h
